{"source": "patent US20240108740A1", "about": "“THERAPEUTIC COMPOSITIONS INCLUDING SPN10 AND USES THEREOF” (Stealth BioTherapeutics Inc., priority 2022, published 2024)", "key": {"Sprague Dawley rats": {"system": "Sprague Dawley rats", "experiment": "Example 51: burn-induced hypermetabolism and UCP-1 expression in brown adipose tissue", "format": "in vivo, rat", "text": "Methods. Sprague Dawley rats will be randomly divided into the following groups; sham (S), sham with saline vehicle (SSal), sham with peptide conjugate-treatment (SC), sham with aromatic-cationic peptides (SC2), sham with SPN10(s) (SC3), sham with SPN10(s)+aromatic-cationic peptides (SC4), burn with saline vehicle (BSal), burn with peptide conjugate-treatment (BC), burn with aromatic-cationic peptides (BC2), burn with SPN10(s) (BC3) and burn with SPN10(s)+aromatic-cationic peptides (BC4). The dorsal aspect of burn subjects will be immersed into 100° C. water for 12 seconds to produce third degree 30% TBSA burns under general anesthesia. Sham burn will be produced by immersion in lukewarm water. Subjects will receive 40 mL/kg intraperitoneal saline injection for the resuscitation following the injury. A venous catheter will be placed surgically into the right jugular vein subsequent to sham or burn injury. […] Indirect calorimetry will be performed for 24 hours at 6 days after burn injury in a TSE Indirect Calorimetry System (TSE Co., Germany), and VO2, VCO2 and energy expenditure will be recorded every six minutes. Interscapullar brown adipose tissue will be collected after the indirect calorimetry, and UCP-1 expression in the brown adipose tissue will be evaluated by Western blot."}, "[1]": {"system": "wild-type (WT) mice, middle cerebral artery occlusion", "experiment": "Cerebral ischemia, no-reflow zone in the brain", "format": "in vivo, mouse", "settings": "i.p. at 0, 6, 24 and 48 hours after ischemia", "description": "Cerebral ischemia initiates a cascade of cellular and molecular events that lead to brain damage. One such event is an anatomic zone of no-reflow. Cerebral ischemia will be induced by occlusion of the right middle cerebral artery for 30 minutes. Wild-type (WT) mice will be given either saline vehicle (Veh), peptide conjugate, aromatic-cationic peptide, SPN10, SPN10 and aromatic-cationic peptide (2-5 mg/kg for the peptide conjugate and equivalent molar doses of aromatic-cationic peptide and/or SPN10 based on concentration of the aromatic-cationic peptide or SPN10 administered in the peptide conjugate group) i.p. at 0, 6, 24 and 48 hours after ischemia. Mice will be sacrificed 3 days after ischemia, and the brains sliced transversely into 6-8 sections. Sections will be photographed under ultraviolet light to identify the region of no-reflow. The areas of no-reflow in each slice will be digitized using Image J (supplier Rasband WS, Image J, National Institutes of Health, http://rsb.info.nih.gov/ij/). The areas in each slice will be multiplied by the weight of the slice and the results will be summed in order to obtain the mass of the no-reflow areas."}, "[2]": {"system": "Isolated guinea pig hearts", "experiment": "Example 6: isolated hearts, 18 hours cold ischemic storage and warm reperfusion", "description": "Isolated guinea pig hearts will be perfused with St. Thomas solution alone or St. Thomas solution containing peptide conjugates (1-100 nM), aromatic-cationic peptides (e.g., an equivalent molar dose of aromatic-cationic peptide based on the concentration of the aromatic-cationic peptide administered in the peptide conjugate treatment group), SPN10(s) (e.g., an equivalent molar dose of SPN10 based on the concentration of SPN10 administered in the peptide conjugate treatment group), or SPN10(s) in combination with aromatic-cationic peptides (e.g., an equivalent molar dose of SPN10 based on the concentration of SPN10 administered in the peptide conjugate treatment group and an equivalent molar dose of aromatic-cationic peptide based on the concentration of aromatic-cationic peptide administered in the peptide conjugate treatment group) for 3 minutes and then stored in the same solution at 4° C. for 18 hours. After ischemic storage, hearts will be re-perfused with 34° C. Krebs-Henseleit solution for 90 min. Hearts freshly isolated from guinea pigs will be used as controls.\nThe hearts will be fixed in paraffin and sliced for immunostaining with an anti-CD36 rabbit polyclonal antibody. It is anticipated that the sections from a representative heart stored in St. Thomas solution for 18 hours at 4° C. will show increased CD36 staining compared to freshly isolated controls.\nIt is also anticipated that there will be a decrease in lipid peroxidation in the hearts treated with peptide conjugates, aromatic-cationic peptides, or SPN10(s) (with or without aromatic-cationic peptides). […]"}}, "note": "Residues, ends and D or L forms follow the SMILES beside them.", "data": [{"smiles": "N=C(N)NCCC[C@H](NC(=O)[C@@H](N)Cc1c[nH]c2ccccc12)C(=O)N[C@@H](Cc1c[nH]c2ccccc12)C(=O)N[C@@H](CCCCN)C(N)=O", "note": "[SPN10, H-L-Trp-L-Arg-L-Trp-L-Lys-NH2] (H-WRWK-NH2)", "values": [{"measurement": "UCP-1 levels in brown adipose tissue (Western blot)", "setting": "Sprague Dawley rats; burn groups BC, BC2, BC3, BC4 vs BSal", "result": "lower than in the BSal group"}, {"measurement": "increase in VO2, VCO2, and energy expenditure after burn", "setting": "Sprague Dawley rats; infused for 7 days", "result": "significantly attenuate this effect"}, {"measurement": "anatomic zone of no-reflow in the brain", "setting": "[1]", "result": "prevent or reduce"}, {"measurement": "infarct volume", "setting": "[1]", "result": "significant reduction"}, {"measurement": "coronary blood flow after cold ischemic storage and warm reperfusion", "setting": "[2]", "result": "significant improvement of coronary blood flow"}, {"measurement": "HNE staining in stored hearts", "setting": "[2]; 18 hours cold ischemia, 90 minutes reperfusion", "result": "reduced"}, {"measurement": "CD36 staining in stored hearts", "setting": "[2]; St. Thomas solution, 18 hours, 4° C.", "result": "significantly reduced"}]}]}
